Consider 5 molecules from paper PMC4503722, “Novel Phenotypic Outcomes Identified for a Public Collection of Approved Drugs from a Publicly Accessible Panel of Assays” (PLoS ONE, 2015).

The test system of test [1] is endothelial tube formation in co-cultures of ECFCs and ADSCs treated with VEGF. Briefly: cells. Type of test: cell-based, human.
Test [2] relates to nuclear β-catenin in C2C12 cells. Briefly: cells. Type of test: cell-based.
A further test deals with INS-1E cells. Briefly: cells. Format: cell-based, rat.
In another test the test system is NCI-H716 cells. Description: cells. Format: cell-based, Human.
For another test, the system named is HeLa cells. Description: cells. Type of test: cell-based. The note with it: HeLa, read-out: CellCycle G2/M.
A further test deals with DLD-1. Briefly: cells. Type of test: cell-based.
The test system of another test is SW480. Description: cells. Format: cell-based.
A further test concerns HCT116. Briefly: cells. Format: cell-based.
The subject of test [3] is HCT116 cells treated with a GSK3β inhibitor. Description: cells. Type of test: cell-based.
A further test concerns the target T1, hp70S6K1 (RPS6KB1) (Homo sapiens, UniProt P23443).
T1 construct: purchased Cerep (LANCE kinase assay platform, contract assay)
Description: Cerep LANCE kinase assay hp70S6K1 (S1 assay 31). Format: biochemical. To be noted: read-out: p70S6K1.

A further test deals with T2, hKDR (Homo sapiens, UniProt P35968).
T2 construct: purchased Cerep (LANCE kinase assay platform, contract assay)
Briefly: Cerep LANCE kinase assay hKDR (S1 assay 32). Type of test: biochemical. To be noted: read-out: KDR. On the technique in general: In TR-FRET formats the signal depends on donor and acceptor labels being close together.

For a further test, the target named is T3, hJAK2 (Homo sapiens, UniProt O60674).
T3 construct: purchased Cerep (LANCE kinase assay platform, contract assay)
Description: Cerep LANCE kinase assay hJAK2 (S1 assay 33). Format: biochemical. The note with it: read-out: JAK2.

The next test concerns the target T4, hGSK3b (Homo sapiens, UniProt P49841).
T4 construct: purchased Cerep (LANCE kinase assay platform, contract assay)
Description: Cerep LANCE kinase assay hGSK3b (S1 assay 34). Format: biochemical. The note with it: read-out: GSK3b.

The next test addresses T5, hFLT3 (Homo sapiens, UniProt P36888).
T5 construct: purchased Cerep (LANCE kinase assay platform, contract assay)
Description: Cerep LANCE kinase assay hFLT3 (S1 assay 35). Format: biochemical. To be noted: read-out: FLT3.

Setting [4] is: S2 Table; module primary assay; 20 / 20.1 codes per legend; read-out: Insulin Secretion.
Setting [5] is: S2 Table; module primary assay; 20 / 20.1 codes per legend; read-out: GLP 1 Secretion.
Where [6] appears, read: S2 Table, 20 = no response at highest concentration.
The mark [7] stands for this setting: basal, DLD-1, read-out: Basal_Viability ATP DLD-1.
The mark [8] stands for this setting: basal, SW480, read-out: Basal_Viability ATP SW480.
Setting [9] is: basal, HCT116, read-out: Basal_Viability ATP HCT116.
Setting [10] is: HCT116 pretreated with GSK3b inhibitor, read-out: GSK3b inh pretreated_Viability ATP HCT116.

Each structure is given as a SMILES string. Where two headings read alike, the source gives them in different places.

T5 sequence (P36888 27-993): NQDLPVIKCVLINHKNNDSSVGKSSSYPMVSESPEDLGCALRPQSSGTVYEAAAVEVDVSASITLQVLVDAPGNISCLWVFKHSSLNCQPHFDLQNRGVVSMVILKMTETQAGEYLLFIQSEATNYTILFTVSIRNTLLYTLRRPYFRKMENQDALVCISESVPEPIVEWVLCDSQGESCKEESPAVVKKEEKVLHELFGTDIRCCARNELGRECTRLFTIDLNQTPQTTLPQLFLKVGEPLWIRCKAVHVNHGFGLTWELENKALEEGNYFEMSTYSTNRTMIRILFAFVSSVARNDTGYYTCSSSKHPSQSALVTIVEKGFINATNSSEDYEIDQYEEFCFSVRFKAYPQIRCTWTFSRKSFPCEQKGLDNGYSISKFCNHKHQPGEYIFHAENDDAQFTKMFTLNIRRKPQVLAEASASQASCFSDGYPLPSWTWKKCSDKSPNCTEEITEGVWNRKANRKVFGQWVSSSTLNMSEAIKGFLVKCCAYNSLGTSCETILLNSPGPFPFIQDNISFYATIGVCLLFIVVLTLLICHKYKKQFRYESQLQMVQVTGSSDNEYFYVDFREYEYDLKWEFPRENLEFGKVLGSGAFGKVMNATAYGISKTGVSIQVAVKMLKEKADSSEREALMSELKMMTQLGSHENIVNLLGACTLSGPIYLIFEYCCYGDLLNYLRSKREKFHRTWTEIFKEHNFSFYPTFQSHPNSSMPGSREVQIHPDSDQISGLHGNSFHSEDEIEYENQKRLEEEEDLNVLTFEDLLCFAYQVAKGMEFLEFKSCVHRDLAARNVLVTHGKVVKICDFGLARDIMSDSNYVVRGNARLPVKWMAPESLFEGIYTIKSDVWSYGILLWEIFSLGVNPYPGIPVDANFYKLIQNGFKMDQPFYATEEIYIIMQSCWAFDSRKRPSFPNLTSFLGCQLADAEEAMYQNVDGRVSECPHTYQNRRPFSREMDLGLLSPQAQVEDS
T1 sequence (P23443 whole entry): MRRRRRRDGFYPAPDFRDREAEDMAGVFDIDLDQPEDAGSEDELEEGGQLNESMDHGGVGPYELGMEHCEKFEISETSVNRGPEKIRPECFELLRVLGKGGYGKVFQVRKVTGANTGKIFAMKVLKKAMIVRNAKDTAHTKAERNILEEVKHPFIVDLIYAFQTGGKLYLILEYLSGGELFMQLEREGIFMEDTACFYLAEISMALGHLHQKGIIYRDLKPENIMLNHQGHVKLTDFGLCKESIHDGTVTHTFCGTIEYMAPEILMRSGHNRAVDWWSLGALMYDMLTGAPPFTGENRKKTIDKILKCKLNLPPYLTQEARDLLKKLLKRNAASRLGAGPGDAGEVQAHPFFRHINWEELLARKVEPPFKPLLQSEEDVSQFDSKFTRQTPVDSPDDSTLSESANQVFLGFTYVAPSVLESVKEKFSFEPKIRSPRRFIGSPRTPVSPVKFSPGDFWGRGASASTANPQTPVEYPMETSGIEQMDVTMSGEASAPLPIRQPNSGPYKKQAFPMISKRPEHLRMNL
T4 sequence (P49841 whole entry): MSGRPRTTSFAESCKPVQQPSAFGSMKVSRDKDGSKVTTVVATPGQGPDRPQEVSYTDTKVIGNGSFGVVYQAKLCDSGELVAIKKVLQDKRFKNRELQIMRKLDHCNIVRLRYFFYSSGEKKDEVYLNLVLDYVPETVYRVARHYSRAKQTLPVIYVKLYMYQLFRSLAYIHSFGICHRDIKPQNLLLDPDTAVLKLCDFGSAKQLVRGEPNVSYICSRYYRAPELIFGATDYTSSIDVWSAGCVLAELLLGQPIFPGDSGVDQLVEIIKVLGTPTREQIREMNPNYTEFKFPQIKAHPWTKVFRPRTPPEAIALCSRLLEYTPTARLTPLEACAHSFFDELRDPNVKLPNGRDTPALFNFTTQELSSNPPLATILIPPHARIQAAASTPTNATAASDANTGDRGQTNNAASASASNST
T3 sequence (O60674 whole entry): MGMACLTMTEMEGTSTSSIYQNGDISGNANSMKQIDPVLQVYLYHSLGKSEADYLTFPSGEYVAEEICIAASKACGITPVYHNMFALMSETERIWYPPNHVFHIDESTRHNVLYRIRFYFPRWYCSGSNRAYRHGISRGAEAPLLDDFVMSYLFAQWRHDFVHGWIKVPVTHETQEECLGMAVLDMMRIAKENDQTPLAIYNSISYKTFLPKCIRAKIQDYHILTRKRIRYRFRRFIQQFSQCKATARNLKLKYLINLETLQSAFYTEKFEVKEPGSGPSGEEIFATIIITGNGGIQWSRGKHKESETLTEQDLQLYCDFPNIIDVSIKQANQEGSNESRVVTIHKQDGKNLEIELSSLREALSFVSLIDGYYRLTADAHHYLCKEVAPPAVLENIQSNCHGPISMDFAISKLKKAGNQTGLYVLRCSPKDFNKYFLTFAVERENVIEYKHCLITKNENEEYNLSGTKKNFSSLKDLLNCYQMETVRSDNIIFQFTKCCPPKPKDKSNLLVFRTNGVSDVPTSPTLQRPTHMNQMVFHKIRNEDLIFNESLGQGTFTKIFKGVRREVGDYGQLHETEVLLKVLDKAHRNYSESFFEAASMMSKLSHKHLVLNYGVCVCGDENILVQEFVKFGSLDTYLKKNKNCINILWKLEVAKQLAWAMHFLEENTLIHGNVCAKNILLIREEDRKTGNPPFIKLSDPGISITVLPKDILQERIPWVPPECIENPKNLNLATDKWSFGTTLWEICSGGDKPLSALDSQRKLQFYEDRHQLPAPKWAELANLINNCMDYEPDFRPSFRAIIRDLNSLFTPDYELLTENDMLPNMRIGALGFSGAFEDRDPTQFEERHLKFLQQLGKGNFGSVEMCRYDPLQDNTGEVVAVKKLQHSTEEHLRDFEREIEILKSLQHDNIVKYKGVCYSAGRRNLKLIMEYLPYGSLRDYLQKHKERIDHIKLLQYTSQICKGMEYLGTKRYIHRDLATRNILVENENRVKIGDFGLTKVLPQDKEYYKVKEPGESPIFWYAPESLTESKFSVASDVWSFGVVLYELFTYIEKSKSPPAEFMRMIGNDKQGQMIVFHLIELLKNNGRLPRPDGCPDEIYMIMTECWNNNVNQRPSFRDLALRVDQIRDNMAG
T2 sequence (P35968 20-1356): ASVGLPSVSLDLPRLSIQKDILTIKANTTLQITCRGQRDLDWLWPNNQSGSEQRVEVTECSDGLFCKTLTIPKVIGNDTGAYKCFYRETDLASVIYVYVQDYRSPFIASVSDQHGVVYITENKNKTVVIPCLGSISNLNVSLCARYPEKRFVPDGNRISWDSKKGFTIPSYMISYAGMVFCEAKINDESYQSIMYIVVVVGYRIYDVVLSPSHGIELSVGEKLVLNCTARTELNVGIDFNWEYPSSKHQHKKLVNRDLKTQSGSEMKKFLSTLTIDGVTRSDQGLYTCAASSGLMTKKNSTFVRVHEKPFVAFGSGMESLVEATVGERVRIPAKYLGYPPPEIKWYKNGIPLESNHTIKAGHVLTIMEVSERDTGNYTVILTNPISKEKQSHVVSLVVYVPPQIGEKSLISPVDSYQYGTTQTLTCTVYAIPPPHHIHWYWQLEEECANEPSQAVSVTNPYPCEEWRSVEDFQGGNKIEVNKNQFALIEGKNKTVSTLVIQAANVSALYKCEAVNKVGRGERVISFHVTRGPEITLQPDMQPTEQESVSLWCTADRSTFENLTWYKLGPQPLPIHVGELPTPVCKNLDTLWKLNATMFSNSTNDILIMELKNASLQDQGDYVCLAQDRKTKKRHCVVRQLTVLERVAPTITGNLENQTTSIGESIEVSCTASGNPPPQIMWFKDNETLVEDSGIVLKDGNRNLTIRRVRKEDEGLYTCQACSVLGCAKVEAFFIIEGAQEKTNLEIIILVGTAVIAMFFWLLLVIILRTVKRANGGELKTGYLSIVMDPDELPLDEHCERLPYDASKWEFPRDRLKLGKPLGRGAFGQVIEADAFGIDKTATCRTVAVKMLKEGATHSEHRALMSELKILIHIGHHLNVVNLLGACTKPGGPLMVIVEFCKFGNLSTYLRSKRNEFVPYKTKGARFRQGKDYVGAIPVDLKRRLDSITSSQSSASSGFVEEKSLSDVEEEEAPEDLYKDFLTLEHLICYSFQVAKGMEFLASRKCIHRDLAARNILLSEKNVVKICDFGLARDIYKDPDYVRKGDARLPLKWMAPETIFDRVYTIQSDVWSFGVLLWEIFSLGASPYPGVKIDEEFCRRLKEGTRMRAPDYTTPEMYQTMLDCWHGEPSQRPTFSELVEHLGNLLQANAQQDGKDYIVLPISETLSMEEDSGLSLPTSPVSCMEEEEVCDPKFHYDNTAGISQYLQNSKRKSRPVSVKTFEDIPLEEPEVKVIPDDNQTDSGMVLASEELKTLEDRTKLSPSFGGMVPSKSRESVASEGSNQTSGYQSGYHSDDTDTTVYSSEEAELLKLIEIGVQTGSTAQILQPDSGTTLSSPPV

Consider `COC(=O)c1nc(Cl)c(Cl)nc1N`, for which the IC50 in [1] (read-out: Anti-Angiogenesis) was 865 nM; with DLD-1 (setting [7]), 835 nM; in the test with SW480 (setting [8]), 880 nM; in the test on HCT116 (setting [9]) it was 0.327 µM; in test [3] (setting [10]), 0.296 µM; on hp70S6K1 (RPS6KB1) (kinase assay), over 20 µM. The IC50 was over 20 µM at hKDR (kinase assay), over 20 µM at hJAK2 (kinase assay), over 20 µM at hGSK3b (kinase assay) and 2.86 µM on hFLT3 (kinase assay). In addition, the EC50 in test [2] (read-out: Wnt Pathway) is 156 nM; in the test with INS-1E cells (setting [4]), over 10 µM; with NCI-H716 cells (setting [5]), over 10 µM; in the test with HeLa cells (setting [6]), 0.511 µM.

On to `Cc1cc(O)c2ccccc2c1O` [2-Methyl-1,4-naphthalenediol], for which the IC50 in [1] (IC50 / EC50; endothelial tube area, ADSC/ECFC co-culture; read-out: Anti-Angiogenesis) is 4890 nM; in the test with DLD-1 (basal, read-out: Basal_Viability ATP DLD-1), 10000 nM; in the test on SW480 (basal, read-out: Basal_Viability ATP SW480), 7080 nM; with HCT116 (basal, read-out: Basal_Viability ATP HCT116), 1.49 µM; in test [3] (GSK3b inhibitor pretreated, read-out: GSK3b inh pretreated_Viability ATP HCT116) it was 9.45 µM; at hp70S6K1 (RPS6KB1), over 20 µM. Moreover, the IC50 at hKDR is 18.4 µM; at hJAK2, over 20 µM; on hGSK3b, 19.1 µM; at hFLT3, over 20 µM. Further, the EC50 was 1750 nM in test [2] (IC50 / EC50; C2C12 beta-catenin translocation; read-out: Wnt Pathway), over 10 µM in the test with INS-1E cells (IC50 / EC50; INS-1E; read-out: Insulin Secretion), over 10 µM with NCI-H716 cells (IC50 / EC50; NCI-H716; read-out: GLP 1 Secretion) and over 10 µM with HeLa cells (IC50 / EC50).

As to `C[n+]1c2cc(N)ccc2cc2ccc(N)cc21` [Acriflavinium chloride], the IC50 in [1] (S2 Table; module primary assay; 20 = no response at highest concentration, 20.1 = inactive in single concentration testing; read-out: Anti-Angiogenesis) is over 10000 nM; with DLD-1 (setting [7]), 4030 nM; in the test with SW480 (setting [8]) it was 1260 nM; in the test with HCT116 (setting [9]) it was 10.3 µM; in test [3] (setting [10]) it was 4.36 µM; on hp70S6K1 (RPS6KB1) (kinase assay) it was 6.57 µM. In addition, the IC50 at hKDR (kinase assay), on hJAK2 (kinase assay), at hGSK3b (kinase assay) and at hFLT3 (kinase assay) was over 20 µM throughout. Further, the EC50 in test [2] (read-out: Wnt Pathway) is 1600 nM; in the test on INS-1E cells (setting [4]), over 10 µM; in the test on NCI-H716 cells (setting [5]), over 10 µM; with HeLa cells (setting [6]), over 10 µM.

For the molecule `Nc1ncnc2c1ncn2CCOCP(=O)(O)O` [Adefovir], the IC50 in test [1] (Homo sapiens, read-out: Anti-Angiogenesis) was 391 nM; in the test with DLD-1 (Homo sapiens, DLD-1, read-out: Basal_Viability ATP DLD-1) it was 2680 nM; in the test on SW480 (Homo sapiens, SW480, read-out: Basal_Viability ATP SW480), 2770 nM; in the test with HCT116 (Homo sapiens, HCT-116, read-out: Basal_Viability ATP HCT116), 9.01 µM; in test [3] (Homo sapiens, HCT-116, read-out: GSK3b inh pretreated_Viability ATP HCT116) it was 0.584 µM; at hp70S6K1 (RPS6KB1), over 20 µM. In addition, the IC50 on hKDR, at hJAK2, on hGSK3b and at hFLT3 was over 20 µM in each case. For the same molecule, the EC50 in [2] (Mus musculus, C2C12, read-out: Wnt Pathway) was 387 nM; in the test on INS-1E cells (Rattus norvegicus, INS-1E, read-out: Insulin Secretion), over 10 µM; with NCI-H716 cells (Homo sapiens, NCI-H716, read-out: GLP 1 Secretion), over 10 µM; in the test with HeLa cells (Homo sapiens), over 10 µM.

As to `C[C@@]12C(=O)OC(=O)[C@]1(C)[C@H]1CC[C@@H]2O1` [Cantharidine], the IC50 was 1230 nM in test [1] (Homo sapiens; read-out: Anti-Angiogenesis); 1120 nM with DLD-1 (Homo sapiens, basal, DLD-1, read-out: Basal_Viability ATP DLD-1); 1860 nM with SW480 (Homo sapiens, basal, SW480, read-out: Basal_Viability ATP SW480); 7.71 µM in the test on HCT116 (Homo sapiens, HCT-116, basal, HCT116, read-out: Basal_Viability ATP HCT116); 3.03 µM in test [3] (Homo sapiens, HCT-116, HCT116 pretreated with GSK3b inhibitor, read-out: GSK3b inh pretreated_Viability ATP HCT116); over 20 µM on hp70S6K1 (RPS6KB1) (kinase assay). Also, the IC50 on hKDR (kinase assay), at hJAK2 (kinase assay), at hGSK3b (kinase assay) and on hFLT3 (kinase assay) was over 20 µM throughout. For the same molecule, the EC50 in [2] (Mus musculus, C2C12; read-out: Wnt Pathway) was 1490 nM; in the test with INS-1E cells (Rattus norvegicus, INS-1E; read-out: Insulin Secretion), over 10 µM; in the test on NCI-H716 cells (Homo sapiens, NCI-H716; read-out: GLP 1 Secretion), 6.68 µM; in the test with HeLa cells (Homo sapiens, S2 Table, 20 = no response at highest concentration) it was over 10 µM.
